Data published in paper PMC3366684, “Studies on the Synthesis of Derivatives of Marine-Derived Bostrycin and Their Structure-Activity Relationship against Tumor Cells” (Marine Drugs, 2012).
One block for each compound: values may come before it.

Assays:
[1] = MTT cytotoxicity assay, MCF-10A; type: cell-based; conditions: MCF-10A cells, immortalized human breast epithelial cell line, 48 h exposure, mean ± SD, three independent experiments
Experimental: (§1) All compounds were evaluated for their in vitro cytotoxic activity against five human cancer cell lines including human breast MCF-7, human breast MDA-MB-435, human lung A549, human liver HepG2 and human colon HCT-116, and compared with their effects on the immortalized human breast epithelial cell line MCF-10A by MTT assay using epirubicin (an anticancer drug used widely in the clinic) as positive control.
(§2) MCF-7, MDA-MB-435, A549, HepG2 and HCT-116 cells were cultured in Dulbecco’s modification Eagle’s medium (DMEM, Invitrogen, Carlsbad, CA, USA) supplemented with 10% fetal bovine serum (FBS, Hyclone, Logan, UT, USA), 2 mM L-glutamine, 100 μg/mL streptomycin and 100 U/mL penicillin (Invitrogen). MCF-10A cells were cultured in keratinocyte serum free medium (KSFM) supplemented with 0.1–0.2 ng/mL human recombinant epidermal growth factor and 20–30 μg/mL bovine pituitary extract (Invitrogen). The cells were incubated at 37 °C in a humidified atmosphere with 5% CO2.
(§3) Cells were harvested during logarithmic growth phase and seeded in 96-well plates at a density of 1 × 10^4 cells/mL, and cultured at 37 °C in a humidified incubator (5% CO2) for 24 h, followed by exposure to various concentrations of compounds tested for 48 h. Subsequently 20 μL of MTT (Genview, Houston, TX, USA) solution (5 mg/mL) was added to each well and mixed, the cells were then incubated for an additional 4 h. Culture supernatant was moved, 150 μL of DMSO (Sangon Biotech, Shanghai, China) was added to each well to fully dissolve the MTT-formazan crystals. Cell growth inhibition was determined by measuring the absorbance (Abs) at λ = 570 nm using a microplate reader and calculated according to the following equation:
(§4) Growth inhibition = (1 − OD of treated cells/OD of control cells) × 100%
(§5) The half maximal inhibitory concentrations (IC50) were obtained from liner regression analysis of the concentration-response curves plotted for each tested compound.

MCF-7 cells = experiment: MTT cytotoxicity assay, MCF-7; type: cell-based, human; conditions: for IC50: MCF7, human breast cancer cell line, MTT, 48 h exposure, mean ± SD, three independent experiments
Experimental: as §1, §2, §3, §4, §5

HCT-116 cells = experiment: MTT cytotoxicity assay, HCT-116; type: cell-based, human; conditions: for IC50: HCT-116, human colon cancer cell line, MTT, 48 h exposure, mean ± SD, three independent experiments
Experimental: as §1, §2, §3, §4, §5

HepG2 cells = experiment: MTT cytotoxicity assay, HepG2; type: cell-based, human; conditions: for IC50: human liver cancer cell line, MTT, 48 h exposure, mean ± SD, three independent experiments
Experimental: as §1, §2, §3, §4, §5

[2] = tested on: five human cancer cell lines (MCF-7, MDA-MB-435, A549, HepG2, HCT-116); experiment: MTT cytotoxicity assay, panel of five human cancer cell lines (summary statements); type: cell-based; conditions: MCF-7, MDA-MB-435, A549, HepG2 and HCT-116, read-out: IC50 against the tested human cancer cell lines (summary over the panel)
Experimental: as §1, §2
Cells were harvested during logarithmic growth phase and seeded in 96-well plates at a density of 1 × 10^4 cells/mL, and cultured at 37 °C in a humidified incubator (5% CO2) for 24 h, followed by exposure to various concentrations of compounds tested for 48 h. […] Cell growth inhibition was determined by measuring the absorbance (Abs) at λ = 570 nm using a microplate reader and calculated according to the following equation: […]

MDA-MB-435 cells = experiment: MTT cytotoxicity assay, MDA-MB-435; type: cell-based, human; conditions: for IC50: MDA-MB-435, human breast cancer cell line, MTT, 48 h exposure, mean ± SD, three independent experiments
Experimental: as §1, §2, §3, §4, §5

A549 cells = experiment: MTT cytotoxicity assay, A549; type: cell-based, human; conditions: for IC50: A549, human lung cancer cell line, MTT, 48 h exposure, mean ± SD, three independent experiments
Experimental: as §1, §2, §3, §4, §5

[3] = ratio of IC50 values, bostrycin vs compound

SMILES: COc1cc(O)c2c(c1O)C(=O)c1cc(C)ccc1C2=O [Compound 4, Austrocortinin]
IC50 at 48 h [1]: > 50 µM
IC50 (MCF-7 cells): > 50 µM
melting point: 232 to 233 °C
IC50 (HCT-116 cells): > 50 µM
IC50 (HepG2 cells; Homo sapiens, HepG2, 48 h): > 50 µM
IC50 [2]: > 50 µM
IC50 (MDA-MB-435 cells): 41.6 ± 2.63 µM
IC50 (A549 cells): > 50 µM

SMILES: COc1ccc(CNC2=CC(=O)c3c(O)c4c(c(O)c3C2=O)C[C@](C)(O)[C@H](O)[C@H]4O)cc1 [Compound 18, 6-(p-Methoxybenzylamino)-6-demethoxybostrycin]
IC50 at 48 h [1]: 27.7 ± 0.93 µM
IC50 (MCF-7 cells): 9.17 ± 0.28 µM
melting point: 149 to 150 °C
IC50 (HCT-116 cells): 13.6 ± 1.85 µM
IC50 (HepG2 cells; Homo sapiens, HepG2, 48 h): > 50 µM
IC50 (MDA-MB-435 cells): 25.6 ± 1.71 µM
IC50 (A549 cells): 15.2 ± 0.42 µM

SMILES: C[C@]1(O)Cc2c(O)c3c(c(O)c2[C@H](O)[C@H]1O)C(=O)C=C(NCc1ccc(F)cc1)C3=O [Compound 19, 6-(p-Fluorobenzylamino)-6-demethoxybostrycin]
IC50 at 48 h [1]: 7.5 ± 0.69 µM
IC50 (MCF-7 cells): 7.94 ± 0.26 µM
melting point: 147 to 148 °C
IC50 (HCT-116 cells): 4.92 ± 0.38 µM
IC50 (HepG2 cells; Homo sapiens, HepG2, 48 h): > 50 µM
IC50 (MDA-MB-435 cells): 7.86 ± 1.2 µM
IC50 (A549 cells): 6.25 ± 0.43 µM

SMILES: CCSC1=C(SCC)C(=O)c2c(O)c3c(c(O)c2C1=O)C[C@](C)(O)[C@H](O)[C@H]3O [Compound 23, 6,7-bis(Ethylthio)-6-demethoxybostrycin]
IC50 at 48 h [1]: 14.8 ± 0.96 µM
IC50 (MCF-7 cells): 0.71 ± 0.01 µM
melting point: 180 to 181 °C
IC50 (HCT-116 cells): 0.95 ± 0.06 µM
IC50 (HepG2 cells; Homo sapiens, HepG2, 48 h): 6.9 ± 0.26 µM
IC50 (MDA-MB-435 cells): 0.76 ± 0.06 µM
IC50 (A549 cells): 4.07 ± 0.51 µM

SMILES: C[C@]1(O)Cc2c(O)c3c(c(O)c2[C@H](O)[C@H]1O)C(=O)C1=C(SCCS1)C3=O [Compound 28, 6,7-(Ethan-1′,2′-yl-dithio)-6-demethoxybostrycin]
IC50 at 48 h [1]: 0.81 ± 0.11 µM
IC50 (MCF-7 cells): 0.57 ± 0.04 µM
fold more active than bostrycin, MCF-7 (MCF-7 cells; [3]): 3.8 fold
melting point: > 300 °C
IC50 (HCT-116 cells): 0.68 ± 0.08 µM
fold more active than bostrycin, HCT-116 (HCT-116 cells; [3]): 7.0 fold
IC50 (HepG2 cells): 0.82 ± 0.01 µM
fold more active than bostrycin, HepG2 (HepG2 cells; [3]): 9.4 fold
IC50 (MDA-MB-435 cells): 0.63 ± 0.45 µM
fold more active than bostrycin, MDA-MB-435 (MDA-MB-435 cells; [3]): 4.5 fold
IC50 (A549 cells): 0.37 ± 0.04 µM
fold more active than bostrycin, A549 (A549 cells; [3]): 7.1 fold

Continued, in another order:

melting point: 124 to 125 °C
SMILES: CCCCSC1=C(SCCCC)C(=O)c2c(O)c3c(c(O)c2C1=O)C[C@](C)(O)[C@H](O)[C@H]3O [Compound 24, 6,7-bis(n-Butylthio)-6-demethoxybostrycin]
IC50 at 48 h [1]: 30.6 ± 2.54 µM
IC50 (MCF-7 cells): 2.45 ± 0.48 µM
IC50 (HCT-116 cells): 3.25 ± 0.54 µM
IC50 (HepG2 cells; Homo sapiens, HepG2, 48 h): 4.03 ± 0.13 µM
IC50 (MDA-MB-435 cells): 7.05 ± 0.56 µM
IC50 (A549 cells): 4.06 ± 0.42 µM

melting point: 112 to 113 °C
SMILES: CCCCCCSC1=C(SCCCCCC)C(=O)c2c(O)c3c(c(O)c2C1=O)C[C@](C)(O)[C@H](O)[C@H]3O [Compound 25, 6,7-bis(n-Hexylthio)-6-demethoxybostrycin]
IC50 at 48 h [1]: 35 ± 1.94 µM
IC50 (MCF-7 cells): 2.6 ± 0.45 µM
IC50 (HCT-116 cells): 0.74 ± 0.1 µM
IC50 (HepG2 cells; Homo sapiens, HepG2, 48 h): 3.33 ± 0.66 µM
IC50 (MDA-MB-435 cells): 10.6 ± 1.11 µM
IC50 (A549 cells): 0.71 ± 0.01 µM
